Data published in patent US20230381170A1, “METHOD FOR TREATING ALS/FTD THROUGH DEGRADATION OF RNA REPEAT EXPANSION” (University of Florida Research Foundation, Incorporated, priority 2020, published 2023).

What was measured:
[1] = biological target: r(G4C2)8 and hnRNP H1 complex; assay: TR-FRET hnRNP H binding assay; assay type: biochemical; conditions: inhibiting r(G4C2)8 and hnRNP H1 complex formation; 7 in the absence of Rnase L
Description: TR-FRET hnRNP H Binding Assay. TR-FRET assays were performed as previously described (12). The mixture was incubated for 15 min at room temperature and then hnRNP H1-His6 was added. After an additional 15 min incubation, streptavidin-XL665 (HTRF, Cisbio Bioassays) and anti-His6-Tb (HTRF, Cisbio Bioassays) were added to a final concentration of 40 nM and 0.44 ng/μL, respectively. After incubating for 1 h, TR-FRET was measured as previously described (12).

[2] = test system: Poly(GP); assay: Poly(GP) by electrochemiluminescent immunoassay in patient-derived LCLs; assay type: cell-based, human
Description: Measuring Poly(GP) Levels by Electrochemiluminescence. LCLs were seeded in T-25 flash at 400,000 cells/mL in 5 mL of growth medium. After overnight incubation, the cells were treated with compound or ASO for 4 days at 37° C. After the treatment period, the cells were pelleted, and total protein was extracted by incubating with CoIP2 Buffer (50 mM Tris-HCL, pH 7.4, 300 mM NaCl, 5 mM EDTA, 1% (v/v) Triton-X 100, 2% (w/v) sodium dodecyl sulfate, and 0.01% (v/v) protease and phosphatase inhibitors) on ice for 5 min and then sonication (3 s intervals at 35% power for ˜40 s). Detergent was then removed using Pierce™ Detergent Removal Spin Columns following manufacturer's protocol. Protein concentration was measured by Pierce™ BCA Protein Assay Kit.
Levels of poly(GP) were measured using Meso Scale Discovery MSD Gold 96-well Streptavidin SECTOR plates. Both capture and detection antibodies were generated using an anti-poly(GP) antibody kindly provided by the Target ALS Foundation. To serve as the capture antibody, the poly(GP) antibody was conjugated to biotin using EZ-Link™ Sulfo-NHS-LC-Biotin (Thermo Fisher) as per the manufacturer's protocol. To serve as the detection antibody, the poly(GP) antibody was sulfo-tagged using MSD GOLD SULFO-TAG NHS-Ester (Meso Scale Discovery) as per the manufacturer's protocol. The conjugated antibodies were desalted with 40K Zeba™ Spin Desalting Columns (Thermo Fisher Scientific), and their concentrations were determined by Pierce™ BCA Protein Assay Kit.
Briefly, the plates were incubated with 2 μg/ml of anti-poly(GP)-biotin antibody at 4° C. overnight. The wells were then washed three times with 1×TBST [1×Tris-buffered saline (TBS) containing 0.1% (v/v) Tween-20] and blocked with 3% BSA in 1×TBST for 1 h at room temperature (with shaking). The blocking solution was removed, and the wells were washed 3 times with 150 μL of 1×TBST. […] After washing with 150 μL of 1×TBST three times, 1×MSD GOLD Read Buffer was added to each well, and electrochemiluminescence was measured using a SECTOR Imager (MSD). […]

[3] = test system: RAN translation of r(G4C2)66; assay: RAN translation assay in HEK293T cells; assay type: cell-based, human
Description: RAN Translation Assay. Inhibition of RAN translation in HEK239T cells was completed as previously described (12). Briefly, HEK293T cells (6×10^6 cells) were seeded in growth medium and incubated at 37° C. overnight. Cells were co-transfected with 2 μg of a plasmid encoding r(G4C2)66-No ATG-NanoLuciferase and 1 μg SV40-Firefly luciferase plasmid with Lipofectamine 3000 (Life Technologies) per the manufacturer's protocols. Following transfection, the cells (˜8000/well) were plated in a clear bottom 384-well plate and incubated at 37° C. for 2 h. Compounds were added in growth medium such that the final concentration of DMSO was less than 1%. The G4C2-LNA and control-LNA (Table 3) were transfected with RNAiMax at a final concentration of 100 nM following transfection with RNAiMax (Life Technologies) per the manufacturer's recommended protocol. RAN and canonical translation was measured following 24 h treatment using a Dual-Luciferase® Reporter Assay System (Promega) following manufacturer's protocol. Experiments were performed as biological triplicates (n=3). Luminescence from Nano-Luciferase activity (RAN translation) was normalized to luminescence from firefly luciferase activity. This ratio for vehicle-treated samples was then set to 1 and the ratios for treated samples normalized accordingly.

[4] = test system: r(G4C2)66-No ATG-GFP mRNA; assay: RNA levels in transfected HEK293T cells by RT-qPCR; assay type: cell-based, human
Description: Measuring RNA Levels in HEK Cells. HEK293T cells were seeded at 2×10^6 in 100 mm dish and incubated at 37° C. overnight. Cells were transfected with 2.5 μg of the (G4C2)66-No ATG-GFP plasmid with Lipofectamine 3000 (Life Technologies) per the manufacturer's protocols. After 5 h, the cells were collected and split into 24-well plate with 5×10^4 cells per well. After 2 h, the compounds were added and incubated for another 24 h.
Total RNA was extracted using a Quick-RNA Miniprep Kit (Zymo Research) per the manufacturer's protocol. Approximately 1 μg of total RNA, as determined by Nanodrop, was used for reverse transcription using qScript Kit (Quantbio) per the manufacturer's protocol. RT-qPCR was performed on a 7900HT Fast Real Time PCR System (Applied Biosystem) using Power SYBR Green Master Mix (Applied Biosystems). Expression levels of mRNAs were normalized to β-actin.
Rnase L Knockdown. HEK293T cells were seeded in growth medium in a 100 mm dish and incubated at 37° C. until ˜80% confluent. Cells were transfected with 2.5 µg (G4C2)66-No-ATG-GFP for 5 h with Lipofectamine 3000 (Life Technologies) per the manufacturer's recommended protocol. Following transfection, the cells were plated in 6-well plates and incubated at 37° C. until ˜80% confluent. Compounds were added in growth medium and incubated for 24 h. Following compound treatment, the siRNA of interest (Table 3) were transfected with RNAiMax (Life Technologies) at a final concentration of 50 nM for 24 h per the manufacturer's recommended protocol. Total RNA was extracted using a Quick-RNA Miniprep Kit (Zymo Research) per the manufacturer's protocol. Intron 1 abundance was assessed by RT-qPCR as described above.

Q: Which IC50 [1] does the source give for Cc1c2ccncc2c(C)c2c1[nH]c1ccc(OCCOCCOCCNCCOCCOCCOc3ccc4[nH]c5c(C)c6ccncc6c(C)c5c4c3)cc12 [Compound 3] here?
A: Its IC50 is 900 ± 100 nM.

Q: What about the “Poly(GP) expression” value ([2]; 5, 50 and 500 nM for 4 days) of the same molecule?
A: Its value is “dose-dependent decrease”.

Q: What about the “RAN translation of r(G4C2)66 (Nano-luciferase activity)” value [3] of the same molecule?
A: The value was “inhibited”.

Q: What about the “r(G4C2)66 levels” value ([4]; HEK293T) of the same molecule?
A: The value was “without affecting”.

Q: Which IC50 [1] does the source give for CCOC(=O)C1=C(Nc2ccccc2)S/C(=C\c2ccc(OCCOCCOCCOCCNC(=O)CCC(=O)N(CCOCCOCCOc3ccc4[nH]c5c(C)c6ccncc6c(C)c5c4c3)CCOCCOCCOc3ccc4[nH]c5c(C)c6ccncc6c(C)c5c4c3)c(O)c2)C1=O [Compound 7] here?
A: The IC50 was 2400 ± 100 nM.

Q: What about the “reduction of Poly(GP) levels” value ([2]; 500 nM) of the same molecule?
A: Its value is 71±11%.

Q: And the “increase in potency over parent compound 3” value ([2]; Poly(GP) in LCLs)?
A: Its value is 5 fold.

Q: What about the “reduction of r(G4C2)exp-containing mRNA” value ([4]; 500 nM compound) of the same molecule?
A: The value was 46±2%.

Q: And the “ability to reduce r(G4C2)exp levels upon knock down of Rnase L by siRNA” value ([4]; RNase L siRNA versus control siRNA)?
A: Its value is “ablated”.
